Target: human PAD4 (hPAD4) (Homo sapiens, UniProt Q9UM07)
Test: RFMS human PAD4 functional assay (rapid-fire mass spectrum)
Assay type: biochemical
Settings: 5 nM hPAD4 enzyme, 250 μM BAEE, 50 μM Calcium; 30 min preincubation, 90 min reaction at 37° C.
Procedure, shortened: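 PAD4 (10 nM) preincubated 30 min with compound (top final 50 μM), then BAEE substrate added in pH 7.5 HEPES buffer with DTT, 50 μM calcium, TPEN; 90 min at 37° C. After TCA quench, citrulline derivatized with phenyl glyoxal (4 mM final, 30 min, 37° C) and quantified by RapidFire MS against internal standard.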

Sequence of human PAD4 (hPAD4) (Q9UM07 whole entry): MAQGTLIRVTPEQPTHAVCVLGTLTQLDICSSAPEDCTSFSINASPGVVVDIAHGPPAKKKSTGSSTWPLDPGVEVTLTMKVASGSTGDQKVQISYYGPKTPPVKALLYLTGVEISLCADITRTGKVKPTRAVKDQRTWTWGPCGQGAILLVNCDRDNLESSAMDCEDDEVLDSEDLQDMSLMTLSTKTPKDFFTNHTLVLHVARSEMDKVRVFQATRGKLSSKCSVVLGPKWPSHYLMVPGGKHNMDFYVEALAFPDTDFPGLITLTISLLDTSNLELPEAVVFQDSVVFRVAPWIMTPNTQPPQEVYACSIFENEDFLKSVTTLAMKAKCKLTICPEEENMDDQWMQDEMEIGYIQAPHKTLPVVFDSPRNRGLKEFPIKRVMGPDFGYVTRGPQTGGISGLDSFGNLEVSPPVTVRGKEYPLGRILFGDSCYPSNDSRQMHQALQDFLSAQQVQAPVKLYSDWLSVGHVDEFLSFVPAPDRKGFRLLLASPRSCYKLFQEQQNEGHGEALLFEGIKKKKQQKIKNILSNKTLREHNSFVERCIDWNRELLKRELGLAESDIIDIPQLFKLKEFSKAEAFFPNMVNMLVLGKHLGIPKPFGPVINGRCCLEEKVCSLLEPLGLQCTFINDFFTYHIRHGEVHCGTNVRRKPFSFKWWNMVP

Row | SMILES | IC50
1 | COc1cc(C(=O)N2CC3CCC2[C@@H]3N)cc2nc(-c3cc4cccnc4n3CC3CC3)n(Cc3nc[nH]n3)c12 (stereo partly drawn) [Example 509, (7R)-2-{2-[1-(cyclopropylmethyl)-1H-pyrrolo[2,3-b]pyridin-2-yl]-7-methoxy-1-[(1H-l,2,4-triazol-3-yl)methyl]-1H-1,3-benzodiazole-5-carbonyl}-2-azabicyclo[2.2.1]heptan-7-amine] | 300 nM
2 | COc1cc(C(=O)N2CC3CCC2[C@@H]3N)cc2nc(-c3cc4ccccc4n3CC3CC3)n(Cc3cnn(C)n3)c12 (stereo partly drawn) [Example 505, (7R)-2-{2-[1-(cyclopropylmethyl)-1H-indol-2-yl]-7-methoxy-1-[(2-methyl-2H-1,2,3-triazol-4-yl)methyl]-1H-1,3-benzodiazole-5-carbonyl}-2-azabicyclo[2.2.1]heptan-7-amine] | 163 nM
3 | COc1cc(C(=O)N2C[C@H](N)C[C@@H](F)C2)cc2nc(-c3cc4ccccc4n3CC3CC3)n(Cc3ccon3)c12 [Example 278, (3R,5R)-1-{2-[1-(cyclopropylmethyl)-1H-indol-2-yl]-7-methoxy-1-[(1,2-oxazol-3-yl)methyl]-1H-1,3-benzodiazole-5-carbonyl)-5-fluoropiperidin-3-amine] | 460 nM
4 | COc1cc(C(=O)N2C[C@H]3CC[C@@H]2[C@@H]3N)cc2nc(-c3cc4ccc(Cl)cc4n3CC3CC3)n(CC3CN(c4cncc(C#N)c4)C3)c12 [Example 87, 5-[3-({5-[(1R,4R,7R)-7-amino-2-azabicyclo[2.2.1]heptane-2-carbonyl]-2-[6-chloro-1-(cyclopropylmethyl)-1H-indol-2-yl]-7-methoxy-1H-1,3-benzodiazol-1-yl}methyl)azetidin-1-yl]pyridine-3-carbonitrile] | 2280 nM
5 | COc1ccc2cc(-c3nc4cc(C(=O)N5C[C@H]6CC[C@@H]5[C@@H]6N)cc(OC)c4n3CC3CN(c4cccc(C#N)n4)C3)n(CC3CC3)c2n1 [Example 54, 6-[3-({5-[(1R,4R,7R)-7-amino-2-azabicyclo[2.2.1]heptane-2-carbonyl]-2-[1-(cyclopropylmethyl)-6-methoxy-1H-pyrrolo[2,3-b]pyridin-2-yl]-7-methoxy-1H-1,3-benzodiazol-1-yl}methyl)azetidin-1-yl]pyridine-2-carbonitrile] | 162 nM
6 | COc1cc(C(=O)N2C[C@H]3CC[C@@H]2[C@@H]3N)cc2nc(-c3cc4cccnc4n3CC3CC3)n(CC3CN(c4ncccn4)C3)c12 [Example 30, (1R,4R,7R)-2-{2-[1-(cyclopropylmethyl)-1H-pyrrolo[2,3-b]pyridin-2-yl]-7-methoxy-1-{[1-(pyrimidin-2-yl)azetidin-3-yl]methyl}-1H-1,3-benzodiazole-5-carbonyl}-2-azabicyclo[2.2.1]heptan-7-amine] | 84 nM
7 | COc1cc(N2CC(Cn3c(-c4cc5cccnc5n4CC4CC4)nc4cc(C(=O)N5C[C@H]6CC[C@@H]5[C@@H]6N)cc(OC)c43)C2)ccn1 [Example 49, (1R,4R,7R)-2-{2-[1-(cyclopropylmethyl)-1H-pyrrolo[2,3-b]pyridin-2-yl]-7-methoxy-1-{[1-(2-methoxypyridin-4-yl)azetidin-3-yl]methyl}-1H-1,3-benzodiazole-5-carbonyl}-2-azabicyclo[2.2.1]heptan-7-amine] | 126 nM
8 | COc1cc(C(=O)N2C[C@H]3CC[C@@H]2[C@@H]3N)cc2nc(-c3cc4cccnc4n3CC3CC3)n(C3CN(c4ncccn4)C3)c12 [Example 80, (1R,4R,7R)-2-{2-[1-(cyclopropylmethyl)-1H-pyrrolo[2,3-b]pyridin-2-yl]-7-methoxy-1-[1-(pyrimidin-2-yl)azetidin-3-yl]-1H-1,3-benzodiazole-5-carbonyl}-2-azabicyclo[2.2.1]heptan-7-amine] | 403 nM
9 | COc1cc(C(=O)N2C[C@H](N)C[C@@H](F)C2)cc2nc(-c3cc4cccnc4n3CC3CC3)n(Cc3ccnn3C)c12 [Example 518, (3R,5R)-1-{2-[1-(cyclopropylmethyl)-1H-pyrrolo[2,3-b]pyridin-2-yl]-7-methoxy-1-[(1-methyl-1H-pyrazol-5-yl)methyl]-1H-1,3-benzodiazole-5-carbonyl}-5-fluoropiperidin-3-amine] | 606 nM
10 | COc1cc(C(=O)N2CC3CCC2[C@@H]3N)cc2nc(-c3cc4cccnc4n3CC3CC3)n(CC3CCN(c4ncccn4)C3)c12 (stereo in doubt) [Example 234, (1R,4R,7R)-2-{2-[1-(cyclopropylmethyl)-1H-pyrrolo[2,3-b]pyridin-2-yl]-7-methoxy-1-{[(3R)-1-(pyrimidin-2-yl)pyrrolidin-3-yl]methyl}-1H-1,3-benzodiazole-5-carbonyl}-2-azabicyclo[2.2.1]heptan-7-amine] | 332 nM
11 | COc1cc(C(=O)N2CC3CCC2[C@@H]3N)cc2nc(-c3cc4ccccc4n3CC3CC3)n(CC3CC3)c12 (stereo partly drawn) [Example 476, (7R)-2-[1-(cyclopropylmethyl)-2-[1-(cyclopropylmethyl)-1H-indol-2-yl]-7-methoxy-1H-1,3-benzodiazole-5-carbonyl]-2-azabicyclo[2.2.1]heptan-7-amine] | 100 nM

The next compounds have a lower IC50 than those just listed; values first:

Row | IC50 | SMILES
12 | 48 nM | COc1cc(C(=O)N2C[C@H]3CC[C@@H]2[C@@H]3N)cc2nc(-c3cc4ccccc4n3CC3CC3)n(CCCOc3ccc(C#N)cc3)c12 [Example 260, 4-(3-{5-[(1R,4R,7R)-7-amino-2-azabicyclo[2.2.1]heptane-2-carbonyl]-2-[1-(cyclopropylmethyl)-1H-indol-2-yl]-7-methoxy-1H-1,3-benzodiazol-1-yl}propoxy)benzonitrile]
13 | 21 nM | COc1cc(C(=O)N2CC3CCC2[C@@H]3N)cc2nc(-c3cc4ccccc4n3CC3CC3)n(CC3CN(C(=O)c4ccnc(C)c4)C3)c12 (stereo partly drawn) [Example 421, (7R)-2-{2-[1-(cyclopropylmethyl)-1H-indol-2-yl]-7-methoxy-1-{[1-(2-methylpyridine-4-carbonyl)azetidin-3-yl]methyl}-1H-1,3-benzodiazole-5-carbonyl}-2-azabicyclo[2.2.1]heptan-7-amine]
14 | 28 nM | COc1cc(-n2cc(Cn3c(-c4cc5ccccc5n4CC4CC4)nc4cc(C(=O)N5CC6CCC5[C@@H]6N)cc(OC)c43)cn2)ccn1 (stereo partly drawn) [Example 366, (7R)-2-{2-[1-(cyclopropylmethyl)-1H-indol-2-yl]-7-methoxy-1-{[1-(2-methoxypyridin-4-yl)-1H-pyrazol-4-yl]methyl}-1H-1,3-benzodiazole-5-carbonyl}-2-azabicyclo[2.2.1]heptan-7-amine]
15 | 59 nM | COc1cc(C(=O)N2C[C@H](N)C[C@@H](F)C2)cc2nc(-c3cc4cccnc4n3CC3CC3)n(Cc3cnn(-c4ncccn4)c3)c12 [Example 401, (3R,5R)-1-{2-[1-(cyclopropylmethyl)-1H-pyrrolo[2,3-b]pyridin-2-yl]-7-methoxy-1-{[1-(pyrimidin-2-yl)-1H-pyrazol-4-yl]methyl}-1H-1,3-benzodiazole-5-carbonyl}-5-fluoropiperidin-3-amine]
16 | 30 nM | COc1cc(C(=O)N2CC3CCC2[C@@H]3N)cc2nc(-c3cc4cccnc4n3CC3CC3)n(Cc3cnn(-c4ccc(O)nc4)c3)c12 (stereo partly drawn) [Example 370, 5-[4-({5-[(7R)-7-amino-2-azabicyclo[2.2.1]heptane-2-carbonyl]-2-[1-(cyclopropylmethyl)-1H-pyrrolo[2,3-b]pyridin-2-yl]-7-methoxy-1H-1,3-benzodiazol-1-yl}methyl)-1H-pyrazol-1-yl]pyridin-2-ol]
17 | 31 nM | COc1cc(C(=O)N2C[C@H]3CC[C@@H]2[C@@H]3N)cc2nc(-c3cc4ccccc4n3CC3CC3)n(CC3CN(C(=O)c4ccc(Cl)cc4)C3)c12 [Example 166, (1R,4R,7R)-2-(1-{[1-(4-chlorobenzoyl)azetidin-3-yl]methyl}-2-[1-(cyclopropylmethyl)-1H-indol-2-yl]-7-methoxy-1H-1,3-benzodiazole-5-carbonyl)-2-azabicyclo[2.2.1]heptan-7-amine]
18 | 68 nM | COc1ccc2cc(-c3nc4cc(C(=O)N5C[C@H]6CC[C@@H]5[C@@H]6N)cc(OC)c4n3CC3CN(c4ncncc4C#N)C3)n(CC3CC3)c2n1 [Example 24, 4-[3-({5-[(1R,4R,7R)-7-amino-2-azabicyclo[2.2.1]heptane-2-carbonyl]-2-[1-(cyclopropylmethyl)-6-methoxy-1H-pyrrolo[2,3-b]pyridin-2-yl]-7-methoxy-1H-1,3-benzodiazol-1-yl}methyl)azetidin-1-yl]pyrimidine-5-carbonitrile]
19 | 22 nM | COc1ccc(-n2cc(Cn3c(-c4cc5ccccc5n4CC4CC4)nc4cc(C(=O)N5CC6CCC5[C@@H]6N)cc(OC)c43)cn2)cn1 (stereo partly drawn) [Example 354, (7R)-2-{2-[1-(cyclopropylmethyl)-1H-indol-2-yl]-7-methoxy-1-{[1-(6-methoxypyridin-3-yl)-1H pyrazol-4-yl]methyl}-1H-1,3-benzodiazole-5-carbonyl}-2-azabicyclo[2.2.1]heptan-7-amine]
20 | 22 nM | COc1cc(C(=O)N2C[C@H]3CC[C@@H]2[C@@H]3N)cc2nc(-c3cc4ccccc4n3CC3CC3)n(Cc3cc(C)nn3C)c12 [Example 252, (1R,4R,7R)-2-{2-[1-(cyclopropylmethyl)-1H-indol-2-yl]-1-[(1,3-dimethyl-1H-pyrazol-5-yl)methyl]-7-methoxy-1H-1,3-benzodiazole-5-carbonyl}-2-azabicyclo[2.2.1]heptan-7-amine]
21 | 32 nM | COc1cc(C(=O)N2CC3CCC2[C@@H]3N)cc2nc(-c3cc4cccnc4n3CC3CC3)n(CC3CN(C(=O)[C@H]4C[C@@H]4C)C3)c12 (stereo partly drawn) [Example 106, (1R,4R,7R)-2-{2-[1-(cyclopropylmethyl)-1H-pyrrolo[2,3-b]pyridin-2-yl]-7-methoxy-1-({1-[(1S,2S)-2-methylcyclopropanecarbonyl]aze-tidin-3-yl}methyl)-1H-1,3-benzodiazole-5-carbonyl}-2-azabicyclo[2.2.1]heptan-7-amine]
22 | 62 nM | COc1cc(C(=O)N2C[C@H]3CC[C@@H]2[C@@H]3N)cc2nc(-c3cc4ccc(Cl)cc4n3CC3CC3)n(CC3CN(c4cncc(C)c4)C3)c12 [Example 23, (1R,4R,7R)-2-{2-[6-chloro-1-(cyclopropylmethyl)-1H-indol-2-yl]-7-methoxy-1-{[1-(5-methylpyridin-3-yl)azetidin-3-yl]methyl}-1H-1,3-benzodiazole-5-carbonyl}-2-azabicyclo[2.2.1]heptan-7-amine]

Reference: patent US12692254B2, “Benzimidazole inhibitors of PAD enzymes” (BRISTOL-MYERS SQUIBB COMPANY, priority 2018, dated 2026)
